Assay results from publication PMC11154709, “4S-fluorination of ProB29 in insulin lispro slows fibril formation” (The Journal of Biological Chemistry, 2024).

Legend:
diabetic mice = test: Reduction of blood glucose in diabetic mice; format: in vivo; details: 5 to 10% of the standard injection (3.5 and 1.75 mg kg-1 as printed in SI), commercial Humalog, subcutaneous, STZ-diabetic male NODscid mice 15-18 week old; mean ± SD of 4 biological replicates (Fig. S2)
Method: To verify bioactivity, lispro variants were injected subcutaneously into diabetic mice, and blood glucose was monitored over 2.5 h. Mouse models allow determination of activity but not time to onset of action ([27]). […] As expected, all lispro variants retained activity (Fig. 2A).
Figure 2 Biological activity and CD spectroscopy of lispro variants.A, lispros were injected subcutaneously into diabetic mice, and blood glucose was measured over time after injection. The data presented here represent the mean ± SD of 3 to 6 biological replicates. B–E, far-UV circular dichroism spectra (60 μM lispro in […] phosphate buffer, pH 8.0). […] 4R-F, 4R-fluoroproline; 4S-F, 4S-fluoroproline.
Experiments were conducted according to procedures approved by the Institutional Animal Care and Use Committee at the City of Hope. Adult (8–12 week old) male NODscid mice (Jackson Laboratory; stock # 001303) were injected intraperitoneally for three consecutive days with freshly prepared streptozotocin (45 mg kg^−1 body weight, suspended in 100 mM sodium citrate buffer, pH 4.5); diabetes was confirmed by the detection of high glucose levels (200–600 mg dL^−1) as measured by a glucomonitor (Freestyle, Abbott Diabetes Care). […] Blood glucose was measured from blood sampled from the lateral tail vein. […]
into the matrix solution (α -cyanohydroxycinnamic acid in 50% ACN, 0.1% TFA) and analyzed by […]

[1] = cited from earlier work
From the text: Removal of the constrained pyrrolidine ring of proline at position B28 grants additional conformational degrees of freedom and removes hydrophobic packing interactions at the dimer interface. […] However, the standard mutagenesis approach employed in the discovery of insulin lispro ([7]) (and other FDA-app ...

For “insulin lispro: fast-acting insulin with inversion of the residues ProB28 and LysB29; Humalog, Eli Lilly [reference compound]”, the “reduction of blood glucose at lower lispro doses” value (diabetic mice) is listed as “did not similarly reduce blood glucose in diabetic mice” and the “absorption” value [1] is listed as “accelerate absorption”.
